Source: patent US10955415B2, “CD247 as a biomarker for assessing the effect of chemotherapeutic and biological drugs” (YISSUM RESEARCH DEVELOPMENT COMPANY OF THE HEBREW …, priority 2011, dated 2021)
“Also recorded” adds a separate entry of the source.

What was measured:
[1] = system: MDSCs (Gr1+CD11b+); design: species or system mice; details: mouse, in vivo
[2] = system: CD247 (ζ chain); design: species or system mice; details: mouse, in vivo
[3] = system: MDSCs; assay type: in vivo, mice; details: mouse, in vivo
[4] = system: CD247; experiment: Adoptive transfer of CFSE-labeled normal splenocytes, CD247 in host and donor cells; assay type: in vivo, mice; details: BCG-inflamed hosts, 24 h after transfer, spleen
Description: CFSE-labeled splenocytes from normal mice (donor cells) were adoptively transferred into mice untreated, inflamed, and inflamed treated i.p. with irinotecan (hosts). After 24 h, splenocytes from each group were harvested and stained for CD247 expression (MFI) in CD3+ T cells within the CFSE+ (donor-cell) or CFSE− (host-cell) population. Data from three independent experiments (n=4) is presented. Statistical analyses using t test indicated significant differences at 95% Cl. Means and SEM are shown. * P<0.05. Abbreviations: Ho. (host), Do. (donor), cont. (control).
CFSE-labeled splenocytes from normal mice (donor cells) were adoptively transferred into non-inflamed, inflamed, and inflamed mice treated i.p. with 5-FU (hosts). After 24 h, splenocytes from each group were harvested and stained for CD247 expression (MFI) in CD3+ T cells within the CFSE+ (donor-cell) or CFSE− (host-cell) population. Data from three independent experiments (n=4) is presented. Statistical analyses using t test indicated significant differences at 95% Cl. Means and SEM are shown. *, P<0.05. Abbreviations: Ho. (host), Do. (donor), cont. (control).
Next, the effect of etanercept treatment on the host's immune status as well as on adoptively transferred T- and NK-cells was examined. It should be noted that adoptively transferred T- and NK-cells being a treatment that is frequently used today in different immunotherapeutic regiments for various pathologies. To this end, CFSE-labeled normal splenocytes were administered, i.v., 1 day before cell harvest, at the peak of the inflammatory response (mimicking cell mediated therapies).

[5] = system: cleaved caspase-3; experiment: Cleaved caspase-3 in splenic MDSCs (flow cytometry); assay type: in vivo; details: BCG-inflamed mice
Description: FIG. 17F. […] Means and SEM are shown. *, P<0.05; **, P<0.01. Abbreviations: Inf. (inflamed), Tot. sp. (total spleen), sp (spleen), g. (gated), Norm. (normal).

[6] = system: MDSCs; experiment: NO and ROS production gated on MDSCs, CRC mouse model; assay type: in vivo; details: CRC-bearing mice, splenocytes
Description: Splenocytes isolated from normal mice, CRC mice or CRC mice treated with 5-FU alone or in a combination with CPT11 (n=5) were analyzed for nitric oxide (NO, FIG. 23A) and reactive oxygen species (ROS, FIG. 23B) production, both by flow cytometry analysis gaiting on the MDSCs (Gr1+CD11b+) population. Histograms represent production levels, as shown by mean fluorescence intensity (MFI). Data from three independent experiments (n=3) are presented. Statistical analyses using t test indicate significant differences at 95%. Means and SEM are shown. *, P<0.05; **, P<0.01. Abbreviations: Norm. (normal), g. (gated).

[7] = system: MDSCs; experiment: NO production of MDSCs in colon epithel and lamina propria, CRC mouse model; assay type: in vivo; details: CRC-bearing mice, gated on MDSCs

SMILES	MDSC levels in peripheral blood (PBLs) [1]	MDSC levels in the spleen [1]	CD247 expression in T cells, PBLs [2]	CD247 expression in T cells, spleen [2]	NO production by MDSCs [3]	ROS production by MDSCs [3]	reduction of hROS of MDSCs [3]	CD247 expression in host and adoptively transferred donor T cells [4]	cleaved caspase-3 expression in spleen-derived MDSCs [5]	NO and ROS production (MDSC suppressive activity) [6]	NO production in epithel and lamina propria [7]
O=c1[nH]cc(F)c(=O)[nH]1 [5-FU, 5-Fluorouracil]	significant decline; also recorded: decrease; also recorded: reduced	significant decline; also recorded: decrease; also recorded: reduced	significant recovery	recovered significantly; also recorded: significant recovery	decreased	decreased	better results	clear significant increase	significant increase	decreased the suppressive activity	reduced
CCc1c2c(nc3ccc(OC(=O)N4CCC(N5CCCCC5)CC4)cc13)-c1cc3c(c(=O)n1C2)COC(=O)[C@]3(O)CC [Irinotecan]	remained high; also recorded: no changes	significantly enhanced; also recorded: significantly increased	further significantly decreased; also recorded: tendency of decreased expression	further significantly decreased; also recorded: strong down-regulation	significant elevation; also recorded: did not result in any further changes	significant elevation; also recorded: significantly increased	–	significant further decrease	–	–	–
